Measured values reported in patent US6716829B2, “Aldosterone antagonist and cyclooxygenase-2 inhibitor combination therapy to prevent or treat inflammation-related cardiovascular disorders” (Pharmacia Corporation, priority 2000, dated 2004).
Where “and” joins values, the source holds several entries; their conditions need not be identical. Identical values can stand only once.

Tested on: Transforming growth factor beta 1 (TGFβ1)
Test: Assay C: TGFβ1 mRNA by TaqMan RT-PCR
Type: in vivo, Male Sprague-Dawley rats
Conditions: for TGF-β1 mRNA (AU): relative to cyclophilin expression, mean ± SEM, eplerenone dose 100 mg/kg/day; for TGF-β (AU): mRNA, individual rats, incl. rat marked * excluded from statistics
Description: The procedure of Assay B was expanded upon in a further study. […] Myocardial tissue from animals in each treatment group was examined after 7, 14, or 30 days of treatment.
Potassium chloride supplementation was added to the saline solution in order to prevent the potential hypokalemia associated with aldosterone excess.
At the time of the surgery, an Alzet 2002 osmotic minipump (Alza Corp., Palo Alto, Calif.) containing either vehicle (9% ethanol/87% propylene glycol/4% dH2O) or 1.0 mg/mL d-aldosterone (Sigma Chemical, St. Louis, Mo.) was inserted subcutaneously at the nape of the neck. Aldosterone was administered at a dose of 0.75 µg/hour. […] Animals were sacrificed from each group (n=8-13) after 7, 14, or 30 days of treatment.
The fluorogenic 5′-nuclease assay (TaqMan PCR) using Applied Biosystems' 7700 Sequence Detection System (Applied Biosystems, Foster City, Calif.) allowed for real time detection/quantitation of a specific gene by monitoring the increase in fluorescence of a gene-specific, dye-labeled oligonucleotide probe. Probes for target and reference genes were labeled at the 5′-end with a 6-carboxyfluorescein (6FAM) reporter dye and at the 3′-end with a 6-carboxy-N,N,N′,N′-tetramethylrhodamine (TAMRA) quencher dye. When the probe was annealed to the target gene, fluorescence of 6FAM was prevented by the close proximity of TAMRA. The exonuclease activity of Taq polymerase released the dyes from the oligonucleotide probe by displacing the probe from the target sequence resulting in fluorescence excitation in direct proportion to the amount of target message present. Data analysis was performed using the Sequence Detection System software from Applied Biosystems.
Primers and probes were designed using Oligo Primer Analysis Software, Version 5.0 (National Biosciences Inc. (NBI)-Wojciech Rychlik, Cascade, Colo.). Primers were synthesized by Life Technologies (Grand Island, N.Y.) and probes were synthesized by Applied Biosystems. Primer/probe sets were designed from known sequences of rat genes to be analyzed. All target gene values were normalized to a reference gene, constitutively expressed cyclophilin. Primer/probe sets sequences can be found in Table 8
RNA was extracted from frozen (−70° C.) left ventricle (LV) tissue (approximately 10-20 mg) using 1.5 mL RNA-STAT 60 according to manufacturer's instructions (Leedo Medical Laboratories, Inc., Houston, Tex.). Briefly, tissues were homogenized using a tissue homogenizer equipped with a 5 mm probe (Ultra-Turrax T8 Homogenizer, IKA Works, Inc. Wilmington, N.C.). Following homogenization, an equal volume of molecular grade chloroform (Sigma Chemical Co., St. Louis, Mo.) was incubated with periodic mixing for 10 min at room temperature. Samples were centrifuged at 12,000 g for 10 min and RNA was precipitated from the top layer by adding an equal volume of molecular grade isopropanol (Sigma Chemical Co.) followed by an overnight incubation at −80° C. RNA was pelleted by centrifugation at 12,000 g, washed with 75% ethanol, and solubilized in nuclease-free water (Promega, Madison, Wis.).
Double-stranded cDNA was synthesized by adding 400 ng RNA (4 uL) to a final volume of 20 uL containing 15% nuclease-free water (Promega, Madison, Wis.), 1×RT Buffer (Life Technologies, Grand Island, N.Y.), 10 mM DTT (Life Technologies), 0.5 mM each of dATP, dTTP, dGTP, dCTP (PE Biosystems, Foster City, Calif.), 2.5 μM Oligo d(T)15 (Oligo Therapeutics, Inc., Wilsonville, Oreg.), 40 units RNAsin (Promega), and 200 units SuperScript II Reverse Transcriptase (Life Technologies). The reactions were performed in thin-walled reaction tubes with caps (Applied Biosystems) to ensure accurate reaction temperatures.

Compound | TGF-β1 mRNA (AU) (after 7 days of treatment) | TGF-β1 mRNA (AU) (after 14 days of treatment) | TGF-β1 mRNA (AU) (after 30 days of treatment) | TGF-β (AU) (data used for Table 17 (7-day protocol), listed as Aldosterone + salt) | TGF-β (AU) (data used for Table 18 (14-day protocol), listed as Aldosterone + salt) | TGF-β (AU) (data used for Table 19 (30-day protocol), listed as Aldosterone + salt) | TGF-β (AU) (data used for Table 17 (7-day protocol), listed as Eplerenone + aldosterone + salt) | TGF-β (AU) (data used for Table 18 (14-day protocol), listed as Eplerenone + aldosterone + salt) | TGF-β (AU) (data used for Table 19 (30-day protocol), listed as Eplerenone + aldosterone + salt)
C[C@]12CCC(=O)C=C1CC[C@@H]1[C@@H]2[C@@H](O)C[C@]2(C=O)[C@@H](C(=O)CO)CC[C@@H]12 [Aldosterone] | 1.35 | 1.27 | 1.33 | 1.23 AU and 0.98 AU and 1.31 AU and 1.89 AU and 1.22 AU and 1.45 AU and 1.47 AU and 1.21 AU and 1.35 AU | 1.26 AU and 1.85 AU and 0.55 AU and 1.91 AU and 1.49 AU and 1.18 AU and 1.32 AU and 1.27 AU and 0.56 AU and 1.29 AU | 1.41 AU and 1.27 AU and 2.11 AU and 1.20 AU and 1.95 AU and 1.49 AU and 0.83 AU and 0.54 AU and 1.21 AU | – | – | –
COC(=O)[C@@H]1CC2=CC(=O)CC[C@]2(C)[C@@]23O[C@@H]2C[C@@]2(C)[C@@H](CC[C@@]24CCC(=O)O4)[C@H]13 [Eplerenone] | 0.99 | 1.26 | 1.32 | – | – | – | 0.80 AU (2×) and 0.81 AU and 0.51 AU and 1.31 AU and 1.02 AU and 0.61 AU and 0.84 AU and 1.51 AU and 1.64 AU | 0.58 AU and 0.62 AU and 1.04 AU and 1.42 AU and 1.29 AU and 1.49 AU and 0.71 AU and 1.21 AU and 1.44 AU and 1.69 AU and 2.41 AU | 1.00 AU and 1.49 AU and 1.40 AU and 1.31 AU and 0.96 AU and 1.93 AU and 1.54 AU and 1.32 AU and 0.89 AU and 1.35 AU
